The results in this text go back to PubChem BioAssay AID330 (DTP/NCI, 2004).

“And” between values parts separate entries of the source, which are not always exact repeats. Identical values can stand only once. Inconclusive results and toxic doses are left out.

In this assay the test system is P388 leukemia ip, CD2F1 mice, survival T/C. As to the kind of experiment: NCI In Vivo Anticancer Drug Screen. Data for tumor model P388 Leukemia (intraperitoneal) in CD2F1 (CDF1) mice. The note with it: endpoint: median survival time, higher = longer survival. A digest of the protocol:
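Mice carrying the transplanted tumor received test compound or vehicle. Survival was recorded in each group, and the value is the treated-group measurement divided by that of the vehicle-treated control group.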

Where [1] appears, read: dose: 50.0 mg/kg/injection, schedule: Q01DX009 (ip), vehicle: Klucel (hydroxypropylcellulose) (HPC).
Where [2] appears, read: dose: 100.0 mg/kg/injection, schedule: Q01DX009 (ip), vehicle: Klucel (hydroxypropylcellulose) (HPC).
Where [3] appears, read: dose: 200.0 mg/kg/injection, schedule: Q01DX009 (ip), vehicle: Klucel (hydroxypropylcellulose) (HPC).
The mark [4] stands for this setting: dose: 100.0 mg/kg/injection, schedule: Q01DX009 (ip), vehicle: saline with Tween-80.
Where [5] appears, read: dose: 100.0 mg/kg/injection, schedule: Q04DX003 (ip), vehicle: saline with Tween-80.
The mark [6] stands for this setting: dose: 200.0 mg/kg/injection, schedule: Q01DX009 (ip), vehicle: saline with Tween-80.
Where [7] appears, read: dose: 200.0 mg/kg/injection, schedule: Q04DX003 (ip), vehicle: saline with Tween-80.
[8] abbreviates: dose: 400.0 mg/kg/injection, schedule: Q04DX003 (ip), vehicle: saline with Tween-80.
Where [9] appears, read: dose: 50.0 mg/kg/injection, schedule: Q01DX005 (ip), vehicle: saline with Tween-80.
[10] abbreviates: dose: 100.0 mg/kg/injection, schedule: Q01DX005 (ip), vehicle: saline with Tween-80.
[11] abbreviates: dose: 200.0 mg/kg/injection, schedule: Q01DX005 (ip), vehicle: saline with Tween-80.
The mark [12] stands for this setting: dose: 60.0 mg/kg/injection, schedule: Q01DX005 (ip), vehicle: saline with Tween-80.
The mark [13] stands for this setting: dose: 120.0 mg/kg/injection, schedule: Q01DX005 (ip), vehicle: saline with Tween-80.
[14] abbreviates: dose: 240.0 mg/kg/injection, schedule: Q01DX005 (ip), vehicle: saline with Tween-80.
[15] abbreviates: dose: 50.0 mg/kg/injection, schedule: Q01DX009 (ip), vehicle: saline with Tween-80.
[16] abbreviates: dose: 15.0 mg/kg/injection, schedule: Q01DX005 (ip), vehicle: saline with Tween-80.
Where [17] appears, read: dose: 30.0 mg/kg/injection, schedule: Q01DX005 (ip), vehicle: saline with Tween-80.
Setting [18] is: dose: 12.5 mg/kg/injection, schedule: Q01DX009 (ip), vehicle: distilled water + Tween-80.
[19] abbreviates: dose: 25.0 mg/kg/injection, schedule: Q01DX009 (ip), vehicle: distilled water + Tween-80.
Where [20] appears, read: dose: 50.0 mg/kg/injection, schedule: Q01DX009 (ip), vehicle: distilled water + Tween-80.
Where [21] appears, read: dose: 100.0 mg/kg/injection, schedule: Q01DX009 (ip), vehicle: distilled water + Tween-80.
Where [22] appears, read: dose: 200.0 mg/kg/injection, schedule: Q01DX009 (ip), vehicle: distilled water + Tween-80.

On to `[Se]=[Nb]=[Se]`, for which the T/C was 89 % of control (dose: 60.0 mg/kg/injection, schedule: Q01DX005 (ip), vehicle: acid diluted with saline); 93 % of control (dose: 120.0 mg/kg/injection, schedule: Q01DX005 (ip), vehicle: acid diluted with saline); 90 % of control (dose: 240.0 mg/kg/injection, schedule: Q01DX005 (ip), vehicle: acid diluted with saline).
Turning to `Cc1ccc(C2ON2S(=O)(=O)c2ccc(C)cc2)cc1` (centres undefined), the T/C is 113 % of control under setting [1], 105 % of control under setting [2] and 100 % of control under setting [3].
Turning to `COc1ccc(/C=c2\sc3nc(-c4ccccc4)nn3c2=O)cc1`, the T/C by setting is: under setting [1], 98 % of control; under setting [2], 98 % of control.
Turning to `CCOC(=O)C12CCC(C(=O)OCC)(CC13SCCS3)C1(C2)SCCS1`, the T/C is, setting by setting: (dose: 100.0 mg/kg/injection, schedule: Q01DX001 (ip), vehicle: saline with Tween-80) 97 % of control; (dose: 200.0 mg/kg/injection, schedule: Q01DX001 (ip), vehicle: saline with Tween-80) 99 % of control; (dose: 400.0 mg/kg/injection, schedule: Q01DX001 (ip), vehicle: saline with Tween-80) 97 % of control.
For the molecule `C[C@]12CCC(=O)C=C1CC[C@@H]1[C@@H]2[C@@H](O)C[C@@]2(C)[C@H]1CC[C@]2(O)C(=O)CF`, the T/C under setting [4] was 100 % of control; the T/C under setting [5] is 109 % of control; the T/C under setting [6] is 100 % of control; the T/C under setting [7] is 109 % of control; the T/C (dose: 400.0 mg/kg/injection, schedule: Q01DX009 (ip), vehicle: saline with Tween-80) was 100 % of control; the T/C under setting [8] was 109 % of control.
Take `COc1ccc(C)cc1NC(=O)Sc1ccc(Cl)cc1`: the T/C by setting is: (dose: 25.0 mg/kg/injection, schedule: Q01DX005 (ip), vehicle: saline with Tween-80) 110 % of control and 115 % of control; (dose: 50.0 mg/kg/injection, schedule: Q01DX005 (ip), vehicle: saline + Tween-80 + alcohol) 117 % of control; under setting [9], 120 % of control and 123 % of control; (dose: 100.0 mg/kg/injection, schedule: Q01DX005 (ip), vehicle: saline + Tween-80 + alcohol) 119 % of control; under setting [10], 122 % of control; under setting [11], 106 % of control.
As to `[Cl][Pd][Cl].[NH-]CCN1CC1`, the T/C (dose: 25.0 mg/kg/injection, schedule: Q01DX009 (ip), vehicle: Klucel (hydroxypropylcellulose) (HPC)) is 119 % of control; the T/C under setting [1] is 112 % of control; the T/C under setting [2] was 114 % of control.
Consider `O=C(/C=C/c1ccc(O)cc1)NCCc1c[nH]c2ccc(O)cc12`, for which the T/C is 106 % of control (dose: 25.0 mg/kg/injection, schedule: Q01DX005 (ip), vehicle: Klucel + Tween-80); 97 % of control (dose: 50.0 mg/kg/injection, schedule: Q01DX005 (ip), vehicle: Klucel + Tween-80); 92 % of control (dose: 100.0 mg/kg/injection, schedule: Q01DX005 (ip), vehicle: Klucel + Tween-80); 95 % of control (dose: 200.0 mg/kg/injection, schedule: Q01DX005 (ip), vehicle: Klucel + Tween-80).
Consider `Cc1nc2ccccc2[se]1`, for which the T/C is 100 % of control under setting [12], 92 % of control under setting [13] and 96 % of control under setting [14].
Turning to `O=c1oc2cc(O)ccc2c2oc3cc(O)ccc3c12`, the T/C is 100 % of control (dose: 50.0 mg/kg/injection, schedule: Q04DX003 (ip), vehicle: saline with Tween-80); 94 % of control under setting [5]; 93 % of control under setting [7]; 93 % of control under setting [8].
Consider `O=C1C=CCCCC1(c1ccccc1)c1ccccc1`, for which the T/C (dose: 100.0 mg/kg/injection, schedule: Q04DX002 (ip), vehicle: saline with Tween-80) was 96 % of control; the T/C (dose: 200.0 mg/kg/injection, schedule: Q04DX002 (ip), vehicle: saline with Tween-80) was 96 % of control; the T/C (dose: 400.0 mg/kg/injection, schedule: Q04DX002 (ip), vehicle: saline with Tween-80) is 96 % of control.
As for `CCOC(=O)C(c1ccccc1)(S(C)(=O)=O)S(C)(=O)=O`, the T/C was 108 % of control (dose: 12.5 mg/kg/injection, schedule: Q01DX009 (ip), vehicle: saline with Tween-80); 112 % of control (dose: 25.0 mg/kg/injection, schedule: Q01DX009 (ip), vehicle: saline with Tween-80); 104 % of control under setting [15].
For the molecule `Clc1cccc(NCNC2Nc3ccccc3N2)c1`, the T/C runs as follows: under setting [16], 96 % of control; under setting [17], 97 % of control; under setting [12], 93 % of control.
Take `CCOC(=O)c1ccc(N=C=S)cc1`: the T/C (dose: 6.25 mg/kg/injection, schedule: Q01DX009 (ip), vehicle: distilled water + Tween-80) is 100 % of control; the T/C under setting [18] is 100 % of control; the T/C under setting [19] is 100 % of control and 111 % of control; the T/C under setting [20] is 117 % of control; the T/C under setting [21] was 109 % of control.
As to `CCCCN(CCCC)CCCOC(=O)c1ccc2oc3ccc(C(=O)OCCCN(CCCC)CCCC)cc3c2c1`, the T/C reads like this: under setting [15], 96 % of control; under setting [4], 103 % of control.
In the case of `COc1ccc(/C=N\O)cc1OC`, the T/C is 100 % of control under setting [5], 100 % of control under setting [7] and 100 % of control under setting [8].
In the case of `CCNc1cc(N)[n+](CC)c2n[nH]c(/N=C/c3cc(Cl)cc(Cl)c3O)c12`, the T/C is 97 % of control under setting [9], 87 % of control under setting [10] and 93 % of control under setting [11].
Regarding `CC(C1CC/C(=N/NC(N)=O)C1)[N+](=O)[O-]` (centres undefined), the T/C runs as follows: under setting [18], 100 % of control; under setting [19], 91 % of control; under setting [20], 90 % of control; under setting [21], 100 % of control; under setting [22], 92 % of control.
`Nc1cccc(C(=O)Nc2ccc3c(O)c(N=Nc4ccccc4)c(S(=O)(=O)O)cc3c2)c1`: the T/C (dose: 50.0 mg/kg/injection, schedule: Q01DX005 (ip), vehicle: Klucel (hydroxypropylcellulose) (HPC)) is 103 % of control; the T/C (dose: 100.0 mg/kg/injection, schedule: Q01DX005 (ip), vehicle: Klucel (hydroxypropylcellulose) (HPC)) is 107 % of control; the T/C (dose: 200.0 mg/kg/injection, schedule: Q01DX005 (ip), vehicle: Klucel (hydroxypropylcellulose) (HPC)) is 103 % of control.
As for `CCC(CC)COC(=O)c1ccccc1C(=O)OCC(CC)CC`, the T/C is 110 % of control and 96 % of control under setting [4]; 101 % of control and 117 % of control under setting [6].
In the case of `CC(C)CCCCCCCCCCCCC(=O)NCC(=O)O`, the T/C is 96 % of control under setting [18]; 96 % of control under setting [19]; 86 % of control under setting [20]; 86 % of control under setting [21]; 87 % of control under setting [22].
For `COc1nc(NC2OC(CO)C(O)C(O)C2O)c(C(=O)CCl)c(=O)n1C` (centres undefined), the T/C reads like this: under setting [12], 92 % of control; under setting [13], 87 % of control; under setting [14], 95 % of control and 96 % of control.
Regarding `COc1ccc(N=Nc2c(-c3cccs3)nn(C(=S)SC)c2C(F)(F)F)cc1`, the T/C was 101 % of control (dose: 7.5 mg/kg/injection, schedule: Q01DX005 (ip), vehicle: saline with Tween-80); 108 % of control under setting [16]; 95 % of control under setting [17].
In the case of `Cc1c(NC(=O)C(=O)O)ccc2c(=O)cc(C(=O)O)[nH]c12`, the T/C was 102 % of control and 118 % of control under setting [1]; 109 % of control and 117 % of control under setting [2]; 111 % of control and 124 % of control under setting [3].
In the case of `Nc1cc2c(c[n+](CCCCCCCCCBr)c3ccccc23)c2ccccc12`, the T/C is, setting by setting: (dose: 1.56 mg/kg/injection, schedule: Q04DX003 (ip), vehicle: other) 155 % of control; (dose: 3.13 mg/kg/injection, schedule: Q04DX003 (ip), vehicle: other) 155 % of control; (dose: 6.25 mg/kg/injection, schedule: Q04DX003 (ip), vehicle: other) 150 % of control.
`CCn1c2ccccc2c2ccc(N=Cc3ccc(N(C)C)cc3)cc21`: the T/C is, setting by setting: under setting [1], 89 % of control; under setting [2], 94 % of control; under setting [3], 103 % of control.
